In patent US4481137A, “Glycoproteins and processes for their production” (Mochida Pharmaceutical Co., Ltd., priority 1982, dated 1984):
Converted amounts (≈) assume the structure as drawn. “And” between values parts separate entries of the source, which are not always exact repeats. Identical values can stand only once.

How the values were obtained:
[1] = system: tumor cells and normal cells; conditions: as reported in the literature; cited from earlier work
KB cells = experiment: Selectivity of cytotoxic effect, KB cells (nasopharynx cancer); format: cell-based, Human; conditions: 48 h, 37°C
Procedure: (§1) Samples of 10^5 cells of each of tumor cell lines including KB cells (nasopharynx cancer), MX-1 cells (breast cancer, supplied from Dr. Shigeru Tsukagoshi, Cancer Institute), HEp-2 cells (throat cancer) and HEL cells (hepatoma, Flow Co.) and of normal cell lines including intestine 407 cells, Girardi heart cells, Chang Liver cells, Vero cells (monkey kidney) and MDCK cells (dog kidney) (Flow Co.), all of which had been precultured for 24 hours respectively, and 10^5 cells of each of P388 and L1210 cells (leukemia, supplied from Dr. Shigeru Tsukagoshi, Cancer Institute), which were used immediately, were each cultured in 1 ml of Eagle's medium containing 10% calf serum and each test substance at 37° C. for 48 hours in a 5% CO2, 95% air atmosphere. Thereafter the number of the viable cells not stained by Trypan Blue was counted under a light microscope, and the concentration of the test substance at which 50% of the cells are killed was calculated against a control taken as 100. […] One unit of the Lymphotoxins and CBF is expressed by a conventional index which is based on the cytotoxicity on mouse L cells (Eds., Bloom, B. R. & Grade, P. R. "In Vitro Methods in Cell-mediated Immunity", Academic Press,1979).

HEp-2 cells = experiment: Selectivity of cytotoxic effect, HEp-2 cells (throat cancer); format: cell-based, Human; conditions: HEp-2, 48 h, 37°C
Procedure: as §1

HEL cells = experiment: Selectivity of cytotoxic effect, HEL cells (hepatoma); format: cell-based, Human; conditions: 48 h, 37°C
Procedure: as §1

MX-1 cells = experiment: Selectivity of cytotoxic effect, MX-1 cells (breast cancer); format: cell-based, Human; conditions: MX-1, 48 h, 37°C
Procedure: as §1

L1210 cells = experiment: Selectivity of cytotoxic effect, L1210 cells (leukemia); format: cell-based, Mouse; conditions: L1210, 48 h, 37°C
Procedure: as §1

P388 cells = experiment: Selectivity of cytotoxic effect, P388 cells (leukemia); format: cell-based, Mouse; conditions: P388, 48 h, 37°C
Procedure: as §1

intestine 407 cells = experiment: Selectivity of cytotoxic effect, normal cells intestine 407; format: cell-based, Human; conditions: intestine 407 (normal), 37°C
Procedure: as §1

Chang Liver cells = experiment: Selectivity of cytotoxic effect, normal cells Chang Liver; format: cell-based, Human; conditions: 48 h, 37°C
Procedure: as §1

Vero cells = experiment: Selectivity of cytotoxic effect, normal cells Vero (monkey kidney); format: cell-based; conditions: 48 h, 37°C
Procedure: as §1

MDCK cells = experiment: Selectivity of cytotoxic effect, normal cells MDCK (dog kidney); format: cell-based; conditions: 48 h, 37°C
Procedure: as §1

[2] = system: Primary Culture Rat Liver; experiment: Selectivity of cytotoxic effect, primary culture rat liver; format: cell-based; conditions: primary culture rat liver (normal), 48 h, 37°C; read-out: Concentration for 50% Inhibition of Growth
[3] = system: tumor cells and normal cells; experiment: Cytotoxicity, selectivity tumor cells versus normal cells; format: cell-based
Source text: One unit of CB is defined to be the amount of the substance at which the growth of 10^5 nasopharynx cancer of KB cell is inhibited by 50%.
as §1

Sarcoma 180 = experiment: Influence on mice transplanted with Sarcoma 180, survival; format: in vivo, mouse
Source text: (§2) Male mice (ddY-Strain) weighing 25-30 g were intraperitoneally transplanted with 3×10^6 cells per animal of Sarcoma 180 or Ehrlich ascites tumor and the period of survival in days was observed.

Ehrlich ascites tumor = experiment: Influence on mice transplanted with Ehrlich ascites tumor, survival; format: in vivo, mouse
Source text: as §2

mouse leukemia L1210 = experiment: Influence on the survival days of leukemic mice, L1210; format: in vivo
Source text: (§3) BDF1 -strain male mice weighing 20-25 g were intraperitoneally transplanted with 10^5 cells per animal of mouse leukemia L1210 or 10^6 cells per animal of mouse leukemia […], and the period of survival in days was observed.

mouse leukemia P388 = experiment: Influence on the survival days of leukemic mice, P388; format: in vivo
Source text: as §3

Lewis's lung carcinoma = experiment: Influence on the survival days of lung carcinoma bearing mice; format: in vivo, mouse
Source text: BDF1 -strain male mice weighing 20-25 g were transplanted with 2×10^6 cells of Lewis's lung carcinoma intramuscularly to the right thigh, and the survival days were observed.

mouse melanoma B 16 = experiment: Influence on the survival period of melanoma bearing mice; format: in vivo
Source text: BDF1 -strain male mice weighing 20-25 g had transplanted subcutaneously in their back 10^6 cells per animal of mouse melanoma B 16, and the survival days were observed.

human breast cancer MX-1 = experiment: Influence on breast cancer bearing mice; format: in vivo, BALB/C strain nude mice; conditions: daily dose 0.5 mg/kg, mean ± SE (control 9.7 ± 2.2)
Procedure: BALB/C strain nude mice weighing 20-25 g, 6 animals in each group, had transplanted subcutaneously into their backs 2 mm square segments of human breast cancer MX-1. CBX3 obtained in Example 26 or 29 was intravenously administered into the mice for 14 days from the 14th day after the transplantation. On the 15th day after the first administration,the volume of the primary tumor was measured.

[4] = system: 3-Methylcholanthrene-induced tumor; experiment: Influence on methylcholanthrene-induced tumor; format: in vivo, ddY-strain mice; conditions: daily dose 0.5 mg/kg, mean ± SE (control 10.5 ± 2.3)
Procedure: 3-Methylcholanthrene dissolved in olive oil was subcutaneously injected to the lateral abdomen of ddY-strain mice, weighing 20-25 g, 8 animals in each group, at 0.5 mg per mouse. CBX3 obtained in Example 26 or 29 was intravenously administered to the mice once a day for 21 days from about 60 days after the 3-Methylcholanthren injection. On the 21st day after the first CBX3 administration, the volume of the tumor was measured.

[5] = system: acute myelogenous leukemia cells M-1; experiment: Effect on inducing differentiation of tumor cells; format: cell-based; conditions: 20.0 ng/ml, 48 h (control 1)
Procedure: According to the method of Hozumi, M. et al (Cancer Research, Vol, 40, 2919-2924 (1980)), 5×10^5 cells of acute myelogenous leukemia cells M-1 (supplied from Dr. Motoo Hozumi, Saitama Cancer Center) were suspended in 1 ml of Eagle's medium containing 10% calf serum and also containing amino acids and vitamins in amounts twice the ordinary levels, to which each test substance had been added, and cultured at 37° C. for 48 hours in a 5% CO2, 95% air atmosphere. Thereafter, the cells were resuspended in a medium containing 0.2% polystyrene latex particles (Dow Chemical Co.) and incubated at 37° C. for 4 hours. Then the total number of cells which phagocytotized the particles and the total number of cells were counted under a light microscope, and the differentiation rate was calculated from the ratio of these cells.

Lewis's lung cancer = experiment: Influence on the lung metastasis of cancer; format: in vivo, mouse; conditions: mean ± SE
Procedure: Groups of BDF1 -strain male mice weighing 20-30 g, 6 animals in each group, had transplanted subcutaneously into their backs 2 mm square segments of Lewis's lung cancer. […] On the 21st day after transplantation, the mass of primary tumor was isolated and weighed, and the number of the metastasized nodes in the animal's lungs was calculated according to the method of Wexler, H. (J. Natl. Cancer Institute, Vol. 36 641 (1966)).

[6] = Homo sapiens, read-out: Concentration for 50% Inhibition of Growth
[7] = Mus musculus, read-out: Concentration for 50% Inhibition of Growth
[8] = daily dose 0.5 mg/kg, 0.5 mg/kg

## Tumor Necrosis Factor
[1]
  Cytotoxic effect, selectivity for tumor cells over normal cells (in words): selective cytotoxic effect on tumor cells

## CO[C@@]12[C@H](COC(N)=O)C3=C(C(=O)C(C)=C(N)C3=O)N1C[C@@H]1N[C@@H]12 [Mitomycin C]
KB cells
  Concentration for 50% Inhibition of Growth: 35 µg/mL
KB cells; [6]
  IC50: 34 µg/mL (≈ 102 µM)
HEp-2 cells
  Concentration for 50% Inhibition of Growth: 18 µg/mL
HEp-2 cells; [6]
  IC50: 17 µg/mL (≈ 50.8 µM)
HEL cells
  Concentration for 50% Inhibition of Growth: 25 µg/mL
HEL cells; [6]
  IC50: 26 µg/mL (≈ 77.8 µM)
MX-1 cells; Homo sapiens, MX1, 48 h, read-out: Concentration for 50% Inhibition of Growth
  IC50: 32 µg/mL (≈ 95.7 µM)
MX-1 cells
  Concentration for 50% Inhibition of Growth: 30 µg/mL
L1210 cells
  Concentration for 50% Inhibition of Growth: 44 µg/mL
L1210 cells; [7]
  IC50: 43 µg/mL (≈ 129 µM)
P388 cells; [7]
  IC50: 36 µg/mL (≈ 108 µM)
P388 cells
  Concentration for 50% Inhibition of Growth: 37 µg/mL
Intestine 407 cells; Homo sapiens, Intestine 407, 48 h, read-out: Concentration for 50% Inhibition of Growth
  IC50: 32 µg/mL (≈ 95.7 µM)
Intestine 407 cells; 48 h
  Concentration for 50% Inhibition of Growth: 35 µg/mL
Chang Liver cells
  Concentration for 50% Inhibition of Growth: 21 µg/mL
Chang Liver cells; Homo sapiens, Chang liver, read-out: Concentration for 50% Inhibition of Growth
  IC50: 19 µg/mL (≈ 56.8 µM)
Vero cells
  Concentration for 50% Inhibition of Growth: 50 µg/mL
Vero cells; Primates, Vero, read-out: Concentration for 50% Inhibition of Growth
  IC50: 52 µg/mL (≈ 156 µM)
MDCK cells
  Concentration for 50% Inhibition of Growth: 44 µg/mL
MDCK cells; Canis lupus familiaris, MDCK, read-out: Concentration for 50% Inhibition of Growth
  IC50: 41 µg/mL (≈ 123 µM)
[2]
  IC50: 61 µg/mL (≈ 182 µM)
[3]
  Cytotoxicity, selectivity for tumor cells over normal cells (in words): nonselective cytotoxicity to the normal cells and the tumor cells
Sarcoma 180; Sarcoma 180, daily dose 0.5 mg/kg, 0.5 mg/kg
  Average Survival Days (% of control group): 140% and 138% and 142%
Ehrlich ascites tumor; [8]
  Average Survival Days (% of control group): 168% and 164% and 166%
Mouse leukemia L1210; L1210, daily dose 0.5 mg/kg, 0.5 mg/kg
  Average Survival Days (% of control group): 128% and 136%
Mouse leukemia L1210; L1210, dose 5.0 mg/kg (Table 4-3)
  Average Survival Days (% of control group): 132%
Mouse leukemia P388; P388, daily dose 0.5 mg/kg, 0.5 mg/kg
  Average Survival Days (% of control group): 133% and 130%
Mouse leukemia P388; P388, dose 5.0 mg/kg (Table 4-3)
  Average Survival Days (% of control group): 141%
Lewis's lung carcinoma; [8]
  Average Survival Days (% of control group): 121% and 120%
Mouse melanoma B 16; melanoma B 16, daily dose 0.5 mg/kg, 0.5 mg/kg
  Average Survival Days (% of control group): 140%
Human breast cancer MX-1
  Tumor Volume: 4.4 ± 1.1 cm^3
[4]
  Tumor Volume: 6.6 ± 1.3 cm^3

## C[C@@H]1C[C@H]2[C@@H]3CCC4=CC(=O)C=C[C@]4(C)[C@@]3(F)[C@@H](O)C[C@]2(C)[C@@]1(O)C(=O)CO [Dexamethasone]
[5]
  Differentiation Rate: 25%

## O=P1(N(CCCl)CCCl)NCCCO1 (centres unmarked) [Cyclophosphamide]
Sarcoma 180; Sarcoma 180, daily dose 20 mg/kg, 20 mg/kg
  Average Survival Days (% of control group): 172% and 170%
Ehrlich ascites tumor; daily dose 20 mg/kg, 20 mg/kg
  Average Survival Days (% of control group): 212% and 206%
Mouse leukemia L1210; L1210, daily dose 20 mg/kg, 20 mg/kg
  Average Survival Days (% of control group): 172% and 149%
Mouse leukemia P388; P388, daily dose 20 mg/kg, 20 mg/kg
  Average Survival Days (% of control group): 147% and 145%
Lewis's lung carcinoma; daily dose 20 mg/kg, 20 mg/kg
  Average Survival Days (% of control group): 163% and 164%
Mouse melanoma B 16; melanoma B 16, daily dose 20 mg/kg
  Average Survival Days (% of control group): 158%
Lewis's lung cancer; Table 7-1 Experiment 1 (control 9.6 ± 1.9), daily dose printed 20 unit/kg
  Tumor Weight: 3.4 ± 0.7 g
Lewis's lung cancer; Table 7-1 Experiment 1 (control 29.2 ± 7.3), daily dose printed 20 unit/kg
  No. of Metastasized Nodes in Lung: 0.4 ± 0.2
Lewis's lung cancer; Table 7-2 (control 7.8 ± 0.5), daily dose printed 20 unit/kg
  Tumor Weight: 3.5 ± 0.6 g
Lewis's lung cancer; Table 7-2, daily dose printed 20 unit/kg
  No. of Metastasized Nodes in Lung: 0.6 ± 0.3
